{
  "source": "ChEMBL document CHEMBL2095176",
  "about": "“GSK Tuberculosis Screening Data”",
  "data": [
    {"tested_on": "Mycobacterium tuberculosis variant bovis BCG", "assay": "microbe, parasite or virus in culture", "format": "functional", "units": {"MIC90": "µM"}, "values": [
      {"molecule": "O=C(COc1ccc(F)cc1Cl)Nc1nc(-c2ccccn2)cs1", "MIC90": 3.9},
      {"molecule": "CC1=NN(C(=O)c2ccco2)C(O)(c2ccccc2)C1", "note": "(configuration not stated)", "MIC90": 4.2},
      {"molecule": "O=C(Nc1ccccc1C(F)(F)F)N1CCN(c2ccc3nnc(-c4ccc(F)cc4)n3n2)CC1", "MIC90": 4},
      {"molecule": "CCOC(=O)c1cc(-c2csc(Nc3c(C)cc(C)cc3C)n2)on1", "MIC90": 7.7},
      {"molecule": "COc1ccc(CCNC(=O)c2c(C)nc3ccccn23)cc1", "MIC90": 6.9},
      {"molecule": "Cc1ccc(-n2ncc3c(SCC(=O)NNC(=O)c4ccco4)ncnc32)cc1", "MIC90": 3.6},
      {"molecule": "Cc1cccc(Cn2ccc(NC(=O)c3ccc4c(c3)OCO4)n2)c1", "MIC90": 8.2},
      {"molecule": "CC(=O)N1CCc2cc3nc(C)cc(C)c3cc21", "MIC90": 3.5},
      {"molecule": "O=c1oc(-c2ccccc2F)nc2scc(-c3ccccc3)c12", "MIC90": 4},
      {"molecule": "O=C(Nc1nc(-c2ccccn2)cs1)C1COc2ccccc2O1", "note": "(configuration not stated)", "MIC90": 3.7},
      {"molecule": "CNc1nc(SC)nc2ccsc12", "MIC90": 10},
      {"molecule": "CCOC(=O)c1c(-c2ccccc2)oc2ccc(O)c(CN3CCCC3)c12", "MIC90": 3.9},
      {"molecule": "CC(C)Oc1ccc(C(=O)Nc2nc(-c3ccccn3)cs2)cc1", "MIC90": 4.1},
      {"molecule": "Cc1cc(C)n(-c2nc3ccccc3c(=O)[nH]2)n1", "MIC90": 3.3},
      {"molecule": "CS(=O)(=O)c1cccc(C(=O)Nc2nc(-c3ccccn3)cs2)c1", "MIC90": 3.3},
      {"molecule": "O=C(NC1CCSc2ccccc21)c1ccc(S(=O)(=O)N2CCOCC2)cc1", "note": "(configuration not stated)", "MIC90": 3.3},
      {"molecule": "COc1cc(Cl)c(Cl)cc1C(=O)Nc1cccc2c1CCN(C)C2", "MIC90": 4},
      {"molecule": "CCOc1ccc(C(=O)Nc2ccc3c(c2)C(C)N(C)CC3)cc1Br", "note": "(configuration not stated)", "MIC90": 4},
      {"molecule": "CC(C)(C)C(=O)CC1(O)Oc2ccccc2N=C1C=C(O)C(C)(C)C", "note": "(configuration not stated)", "MIC90": 5.3},
      {"molecule": "O=S(=O)(NCC1CCCO1)c1ccc(-c2ccc(CN3CCOCC3)cc2)s1", "note": "(configuration not stated)", "MIC90": 4.1},
      {"molecule": "c1ccc(-n2ncc3c(N4CCCNCC4)nc(C4CC4)nc32)cc1", "MIC90": 4.1},
      {"molecule": "O=C(Nc1nnc(-c2ccccc2)o1)c1ccc2c(c1)CCCC2", "MIC90": 4.1},
      {"molecule": "O=C(Nc1nnc(-c2ccc(Cl)cc2)o1)c1cc(F)cc(F)c1", "MIC90": 4.1},
      {"molecule": "Cc1ccc(C)c(-c2nnc(NC(=O)c3cccc(C(F)(F)F)c3)o2)c1", "MIC90": 4.1},
      {"molecule": "O=c1nc(Oc2ccccc2)c(F)c[nH]1", "MIC90": 4.2},
      {"molecule": "Cc1ccc(Cl)c2sc(N(CCN(C)C)C(=O)c3cccc(S(C)(=O)=O)c3)nc12", "MIC90": 4.2},
      {"molecule": "COc1ccc(CCNC(=O)c2cc(-c3ccc(OC)c(OC)c3)on2)cc1OC", "MIC90": 4.2},
      {"molecule": "O=C(COc1ccc2c(c1)CCC2)NNC(=O)c1cccs1", "MIC90": 4.2},
      {"molecule": "C[C@@H]1CN(c2ccc(C#N)c(C(F)(F)F)c2)CCN1", "MIC90": 4.2},
      {"molecule": "O=C(COc1ccc(Cl)cc1)NNC(=O)c1cccs1", "MIC90": 4.2},
      {"molecule": "c1ccc(-c2nnc(Sc3ccnc(N4CCN(c5ccncc5)CC4)n3)n2CCN2CCOCC2)cc1", "MIC90": 4.2},
      {"molecule": "O=C(/C=C/c1ccc(C(F)(F)F)cc1F)NC1CCN(c2ncccc2C(F)(F)F)CC1", "MIC90": 4.2},
      {"molecule": "Cc1ccccc1CN1CCC(O)(c2ccc(Cl)c(C(F)(F)F)c2)CC1", "MIC90": 4.3},
      {"molecule": "O=C(C1CCN(c2nnc(-n3cccc3)s2)CC1)N1CCC(Cc2ccccc2)CC1", "MIC90": 3.4},
      {"molecule": "Cc1onc(-c2ccccc2)c1C(=O)Nc1nc(-c2ccccn2)cs1", "MIC90": 4.3},
      {"molecule": "O=C(COc1ccccc1)N1CCN(c2cnc3ccccc3n2)CC1", "MIC90": 9.3},
      {"molecule": "Cc1c(C(=O)Nc2ccccc2)nnc2cc(-c3ccccc3)nn12", "MIC90": 3.1},
      {"molecule": "CC1CCCC(NC(=O)Nc2ccc3snnc3c2)C1C", "note": "(configuration not stated)", "MIC90": 3.1},
      {"molecule": "CCCCOc1ccc(C(=O)Nc2nnc(-c3ccccc3)o2)cc1", "MIC90": 3.1},
      {"molecule": "O=C(Nc1nc(-c2ccccn2)cs1)c1cc2c(s1)CCCCC2", "MIC90": 3.1},
      {"molecule": "C=CCNCCS(=O)(=O)c1cccc(Nc2ccc(-c3cccc(F)c3)cn2)c1", "MIC90": 3.1},
      {"molecule": "CN(CCOc1cccc(-c2ccc(C(=O)N3CCCC3)cc2)c1)Cc1cc(-c2ccccc2)no1", "MIC90": 3.1},
      {"molecule": "COc1cccc(C(=O)N(Cc2cccnc2)Cc2cc3c(C)cc(C)cc3nc2Cl)c1", "MIC90": 3.1},
      {"molecule": "NC(=O)c1ccc(-c2cccc(OCCNCCc3cccc(F)c3)c2)cc1", "MIC90": 3.1},
      {"molecule": "Cc1cc2c(NC(=O)NC3CCN(c4ccc(C(F)(F)F)cn4)CC3)cccc2c(C)n1", "MIC90": 3.1},
      {"molecule": "O=C1N(C2CCCCC2)CCS1(=O)=O", "MIC90": 3.1},
      {"molecule": "O=C(NCc1cc(Cl)cc(Cl)c1)c1c(C(F)(F)F)nc2ccccn12", "MIC90": 1.3},
      {"molecule": "C=CCNc1nc(SC)nc2ccccc12", "MIC90": 4.4},
      {"molecule": "O=C(Cc1ccc(Cl)c(Cl)c1)Nc1nc(-c2ccccn2)cs1", "MIC90": 3.2},
      {"molecule": "CN(C)c1ccc(NC(=O)Nc2cnsn2)cc1", "MIC90": 3.2},
      {"molecule": "CCOc1ccc(-c2nc(-c3ccc(C(F)(F)F)c(O[C@@H]4CCN(C)C4)c3)no2)cc1", "MIC90": 3.2},
      {"molecule": "CSc1ncc(C(=O)Nc2nc(-c3ccc(Cl)cc3)cs2)cn1", "MIC90": 3.3},
      {"molecule": "O=C(Nc1nc(-c2ccccn2)cs1)C1(c2ccc(Cl)cc2)CC1", "MIC90": 3.3},
      {"molecule": "CCOc1ccc(CC(=O)Nc2cc(C)nn2-c2nc(C)c(CC)c(=O)[nH]2)cc1", "MIC90": 3.3},
      {"molecule": "C=CCn1c(Sc2ccnc(N3CCN(c4ccncc4)CC3)n2)nnc1C(N)=O", "MIC90": 3.3},
      {"molecule": "O=C(C=Cc1cccs1)Nc1nc(-c2ccccn2)cs1", "MIC90": 3.3},
      {"molecule": "O=C(C=Cc1ccccc1)Nc1nc(-c2ccccn2)cs1", "MIC90": 3.3}
    ]}
  ]
}
